Data taken from patent US12052991B2, “Substituted pyridinyloxybenzenes and salts thereof and use thereof as herbicidal agents” (Bayer Aktiengesellschaft, priority 2018, dated 2024).

What was measured:
Type in all cases: in vivo
[1] = test system: Abutilon theophrasti (ABUTH); assay: Herbicidal post-emergence action (Table B5); conditions: rated visually after about 3 weeks, 100% = plants have died, 0% = like control plants
Protocol: (§1) Seeds of mono- and dicotyledonous weed plants were placed in plastic pots in sandy loam soil (doubly sown with in each case one species of mono- or dicotyledonous weed plants per pot), covered with soil and cultivated in a greenhouse under controlled growth conditions. 2 to 3 weeks after sowing, the test plants were treated at the one-leaf stage. The compounds of the invention, formulated in the form of wettable powders (WP) or as emulsion concentrates (EC), were applied onto the green parts of the plants as aqueous suspension or emulsion with addition of 0.5% additive at a water application rate of 600 liters per hectare (converted). After the test plants had been kept in the greenhouse under optimum growth conditions for about 3 weeks, the activity of the preparations was rated visually in comparison to untreated controls. For example, 100% activity=the plants have died, 0% activity=like control plants. Tables B1 to B12 below show the effects of selected compounds of the general formula (I) according to Table 1 on various harmful plants and an application rate corresponding to 1280 or 320 g/ha, which were obtained by the experimental procedure mentioned above.

Veronica persica (VERPE) [2] = assay: Herbicidal pre-emergence action, test C (Table C12); conditions: dosage 1280 g/ha, visual scoring vs untreated controls
Description: (§2) Seeds of mono- and dicotyledonous weed plants were placed in plastic pots in sandy loam soil (doubly sown with one species each of mono- or dicotyledonous weed plants per pot) and covered with soil. The compounds of the invention, formulated in the form of wettable powders (WP) or as emulsion concentrates (EC), were then applied onto the surface of the covering soil as aqueous suspension or emulsion with addition of 0.5% additive at a water application rate of 600 liters per hectare (converted). After the treatment, the pots were placed in a greenhouse and kept under good growth conditions for the test plants. After about 3 weeks, the effect of the preparations was scored visually in comparison with untreated controls as percentages. For example, 100% activity=the plants have died, 0% activity=like control plants. Tables C1 to C12 below show the effects of selected compounds of the general formula (I) according to Table 1 on various harmful plants and an application rate corresponding to 1280 or 320 g/ha, which were obtained by the experimental procedure mentioned above.

[3] = test system: Echinochloa crus-galli (ECHCG); assay: Herbicidal post-emergence action (Table B1); conditions: 1280 g/ha; rated visually after about 3 weeks; 100% = plants have died, 0% = like control plants
Protocol: as §1

Stellaria media (STEME) [4] = assay: Herbicidal post-emergence action (Table B8); conditions: visual rating about 3 weeks after treatment, 100% = plants have died, 0% = like control plants
Protocol: as §1

Poa annua (POAAN) [5] = assay: Herbicidal pre-emergence action, test C (Table C3); conditions: visual scoring after about 3 weeks, 100% = plants have died, 0% = like control plants
Description: as §2

[6] = test system: harmful plants ABUTH, AMARE, ECHCG, LOLRI, MATIN, POAAN, SETVI, STEME, ALOMY, DIGSA, KCHSC and VERPE; assay: Herbicidal pre-emergence action (test C), summary of Tables C1-C12; conditions: application rate of 1280 or 320 g of active ingredient per hectare; summary in words
Description: as §2, with “percentages.” for “percentages. For example, 100% activity=the plants have died, 0% activity=like control plants. Tables C1 to C12 below show the effects of selected compounds of the general formula (I) according to Table 1 on various harmful plants and an application rate corresponding to 1280 or 320 g/ha, which were obtained by the experimental procedure mentioned above.”
(§3) For example, 100% activity=the plants have died, 0% activity=like control plants.
Tables C1 to C12 below show the effects of selected compounds of the general formula (I) according to Table 1 on various harmful plants and an application rate corresponding to 1280 or 320 g/ha, which were obtained by the experimental procedure mentioned above.
As the results of Tables C1-C12 show, compounds no.

Stellaria media (STEME) [7] = assay: Herbicidal pre-emergence action, test C (Table C8); conditions: visual scoring after about 3 weeks, 100% = plants have died, 0% = like control plants
Description: as §2

Veronica persica (VERPE) [8] = assay: Herbicidal post-emergence action (Table B12); conditions: visual rating about 3 weeks after treatment, 100% = plants have died, 0% = like control plants
Protocol: as §1

[9] = test system: Matricaria inodora (MATIN); assay: Herbicidal pre-emergence action, test C (Table C7); conditions: dosage 1280 g/ha; visual scoring after about 3 weeks; 100% = plants have died, 0% = like control plants
Description: as §2

[10] = test system: Amaranthus retroflexus (AMARE); assay: Herbicidal pre-emergence action, test C (Table C6); conditions: visual scoring after about 3 weeks, 100% = plants have died, 0% = like control plants
Description: as §2

[11] = test system: Digitaria sanguinalis (DIGSA); assay: Herbicidal pre-emergence action, test C (Table C10); conditions: dosage 1280 g/ha; visual scoring after about 3 weeks; 100% = plants have died, 0% = like control plants
Description: as §2

Setaria viridis (SETVI) = assay: Herbicidal pre-emergence action, test C (Table C4); conditions: visual scoring after about 3 weeks, 100% = plants have died, 0% = like control plants
Description: as §2

[12] = test system: Amaranthus retroflexus (AMARE); assay: Herbicidal post-emergence action (Table B6); conditions: visual rating about 3 weeks after treatment, 100% = plants have died, 0% = like control plants
Protocol: as §1

[13] = test system: harmful plants ABUTH, AMARE, ECHCG, LOLRI, MATIN, POAAN, SETVI, STEME, ALOMY, DIGSA, KCHSC and VERPE; assay: Herbicidal post-emergence action, summary of Tables B1-B12; conditions: application rate of 1280 or 320 g of active ingredient per hectare; summary in words
Protocol: as §1, with “controls.” for “controls. For example, 100% activity=the plants have died, 0% activity=like control plants. Tables B1 to B12 below show the effects of selected compounds of the general formula (I) according to Table 1 on various harmful plants and an application rate corresponding to 1280 or 320 g/ha, which were obtained by the experimental procedure mentioned above.”
as §3
Tables B1 to B12 below show the effects of selected compounds of the general formula (I) according to Table 1 on various harmful plants and an application rate corresponding to 1280 or 320 g/ha, which were obtained by the experimental procedure mentioned above.
As the results of Tables B1-B12 show, compounds no.

Poa annua (POAAN) [14] = assay: Herbicidal post-emergence action (Table B3); conditions: rated visually after about 3 weeks, 100% = plants have died, 0% = like control plants
Protocol: as §1

Bassia scoparia (KCHSC) = assay: Herbicidal post-emergence action (Table B11); conditions: dosage 1280 g/ha; visual rating about 3 weeks after treatment; 100% = plants have died, 0% = like control plants
Protocol: as §1

[15] = test system: Digitaria sanguinalis (DIGSA); assay: Herbicidal post-emergence action (Table B10); conditions: dosage 1280 g/ha; visual rating about 3 weeks after treatment; 100% = plants have died, 0% = like control plants
Protocol: as §1

[16] = test system: Abutilon theophrasti (ABUTH); assay: Herbicidal pre-emergence action, test C (Table C5); conditions: dosage 1280 g/ha; visual scoring after about 3 weeks; 100% = plants have died, 0% = like control plants
Description: as §2

[17] = test system: Alopecurus myosuroides (ALOMY); assay: Herbicidal post-emergence action (Table B9); conditions: 1280 g/ha; rated visually after about 3 weeks; 100% = plants have died, 0% = like control plants
Protocol: as §1

| SMILES | Post-emergence action against Abutilon theophrasti (ABUTH) ([1]; 1280 g/ha) | Pre-emergence action against Veronica persica (VERPE) (Veronica persica (VERPE) [2]) | Post-emergence action against Stellaria media (STEME) (Stellaria media (STEME) [4]; dosage 320 g/ha) | Post-emergence action against Stellaria media (STEME) (Stellaria media (STEME) [4]; dosage 1280 g/ha) | Pre-emergence action against Poa annua (POAAN) (Poa annua (POAAN) [5]; dosage 1280 g/ha) | herbicidal activity against the harmful plants of Tables C1-C12 in pre-emergence treatment [6] | Pre-emergence action against Stellaria media (STEME) (Stellaria media (STEME) [7]; dosage 320 g/ha) | Pre-emergence action against Stellaria media (STEME) (Stellaria media (STEME) [7]; dosage 1280 g/ha) | Post-emergence action against Veronica persica (VERPE) (Veronica persica (VERPE) [8]; dosage 320 g/ha) | Post-emergence action against Veronica persica (VERPE) (Veronica persica (VERPE) [8]; dosage 1280 g/ha) | Pre-emergence action against Matricaria inodora (MATIN) [9] | Pre-emergence action against Amaranthus retroflexus (AMARE) ([10]; dosage 320 g/ha) | Pre-emergence action against Amaranthus retroflexus (AMARE) ([10]; dosage 1280 g/ha) | Pre-emergence action against Digitaria sanguinalis (DIGSA) [11] | Pre-emergence action against Setaria viridis (SETVI) (Setaria viridis (SETVI); dosage 1280 g/ha) | Post-emergence action against Amaranthus retroflexus (AMARE) ([12]; dosage 1280 g/ha) | herbicidal activity against the harmful plants of Tables B1-B12 in post-emergence treatment [13] | Post-emergence action against Poa annua (POAAN) (Poa annua (POAAN) [14]; 320 g/ha) | Post-emergence action against Poa annua (POAAN) (Poa annua (POAAN) [14]; 1280 g/ha) | Post-emergence action against Bassia scoparia (KCHSC) (Bassia scoparia (KCHSC)) | also measured |
| --- | --- | --- | --- | --- | --- | --- | --- | --- | --- | --- | --- | --- | --- | --- | --- | --- | --- | --- | --- | --- | --- |
| COc1ccc(-c2cc(C(F)F)no2)c(Oc2ccc(Cl)cn2)c1 [Example 1-39] | 90% | 100% | 100% | 100% | 100% | very good herbicidal activity | 100% | 100% | 100% | 100% | 90% | 100% | 100% | 90% | 90% | 100% | very good herbicidal activity | 100% | 100% |  | Post-emergence action against Echinochloa crus-galli (ECHCG) [3]: 90%; Pre-emergence action against Poa annua (POAAN) (Poa annua (POAAN) [5]; dosage 320 g/ha): 100%; Post-emergence action against Amaranthus retroflexus (AMARE) ([12]; dosage 320 g/ha): 100% |
| Cc1ccc(-c2ccccc2Oc2ccc(Cl)cn2)nc1 [Example 1-80] | 100% | 100% |  | 100% | 90% | very good herbicidal activity |  |  | 100% | 100% | 90% | 100% | 100% | 100% | 100% | 100% | very good herbicidal activity |  |  |  |  |
| Cc1ccc(-c2cc(C(F)F)no2)c(Oc2ncc(Cl)cc2F)c1 [Example 1-27] | 90% | 100% | 100% | 100% |  | very good herbicidal activity |  | 90% | 100% | 100% |  |  | 90% |  |  |  | very good herbicidal activity |  |  | 90% |  |
| Cc1ccc(-c2cc(C(F)F)no2)c(Oc2ccccn2)c1 [Example 1-25] | 90% | 90% |  | 100% | 90% | very good herbicidal activity | 90% | 100% |  |  | 90% | 100% | 100% |  | 100% |  | very good herbicidal activity |  |  |  | Post-emergence action against Digitaria sanguinalis (DIGSA) [15]: 100%; Pre-emergence action against Abutilon theophrasti (ABUTH) [16]: 100%; Pre-emergence action against Setaria viridis (SETVI) (Setaria viridis (SETVI); dosage 320 g/ha): 100% |
| FC(F)(F)c1ccc(-c2ccccc2Oc2ccc(Cl)cn2)nc1 [Example 1-67] | 100% | 100% | 100% | 100% | 100% | very good herbicidal activity | 100% | 100% | 100% | 100% |  |  | 100% | 100% | 100% | 100% | very good herbicidal activity | 100% | 100% | 90% | Post-emergence action against Abutilon theophrasti (ABUTH) ([1]; 320 g/ha): 90%; Post-emergence action against Alopecurus myosuroides (ALOMY) [17]: 90%; Post-emergence action against Digitaria sanguinalis (DIGSA) [15]: 90% |
